Here are results for 1 compound from patent publication US7557133B2, “Caspase inhibitors containing isoxazoline ring” (LG Life Sciences Ltd., priority 2003, dated 2009).

Structures are written as SMILES. Marks after values point to notes of the source that are not given here. Some results are limits rather than exact numbers.

One test has as its target T1, caspase-1 (Homo sapiens, UniProt P29466).
T1 construct: p10 and p20 subunits (Thornberry, N. A. et al, Nature, 1992, 356, 768) were expressed in E. coli; made in house; host or cells: E. coli
T1 sequence (P29466 120-297 limits assumed): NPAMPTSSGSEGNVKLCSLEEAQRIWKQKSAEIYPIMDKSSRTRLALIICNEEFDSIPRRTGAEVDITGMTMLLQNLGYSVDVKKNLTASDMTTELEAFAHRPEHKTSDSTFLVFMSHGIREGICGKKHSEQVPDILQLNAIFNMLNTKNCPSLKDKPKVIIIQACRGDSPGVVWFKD
T1 sequence (P29466 317-404 limits assumed): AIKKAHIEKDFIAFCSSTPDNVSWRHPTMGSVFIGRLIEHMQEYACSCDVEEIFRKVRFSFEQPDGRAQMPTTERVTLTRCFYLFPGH
The experiment in a line: Caspase-1 inhibitory effect (fluorescent substrate AcYVAD-AFC). Type of test: biochemical. Conditions: pH 7.5; 25° C., 50 μM AcYVAD-AFC, 10 nM caspase-1; read-out: Caspase-1 Kobs/[I] (converted). The method, then:
Caspase-1 and caspase-8 known as cysteine proteases in the form of α2β2 were expressed, purified, and activated by modifying a method known in Thornberry, N. A. et al, Nature, 1992, 356, 768. Thornberry, N. A. Methods in Enzymology, 1994, 244, 615. Walker, N. P. C. et al. Cell, 1994, 78, 343, and caspase-9 was also purified by a similar method, and the inhibitory activity against them was tested. Briefly describing, p10 and p20 subunits (Thornberry, N. A. et al, Nature, 1992, 356, 768) were expressed in E. coli and purified by nickel column and anionic exchange chromatography to give caspase-1, caspase-8 and caspase-9. The fluorescent substrate AcYVAD-AFC for thus obtained caspase-1, AcDEVD-AFC for caspase-8, and AcLEHD-AFC for caspase-9 were used for determining specific activity of the synthesized inhibitors. The enzyme reaction was carried out at 25° C. with various concentrations of the inhibitors in a buffer solution containing 50 mM HEPES(pH 7.50), 10% (w/v) sucrose, 0.1% (w/v) CHAPS, 100 mM NaCl, 1 mM EDTA, and 10 mM DTT in the presence of 50 μM AcYVAD-AFC for 10 nM caspase-1, 50 μM AcDEVD-AFC for 2.1 nM caspase-8, and 150 μM AcLEHD-AFC for 200 nM caspase-9. The inhibitory constants Ki and Kobs of the inhibitors were determined by measuring the reaction velocity with the time lapse using a fluorescent spectrometer and by obtaining the initial rate constant. Ki was calculated from the Lineweaver Burk Plot, and Kobs from the following Equation 1. Kobs=−ln(1−At/Aoo)/t Equation 1
At means cleavate rate (%) at time t, and
Aoo means the maximum cleavage rate (%).
Spectra MAX GeminiXS Fluorescent Spectrometer of Molecular Device Co. was used at the excitation wavelength of 405 nm and the emission wavelength of […].

For a further test, the target named is T2, caspase-8 (Homo sapiens, UniProt Q14790).
T2 construct: p10 and p20 subunits (Thornberry, N. A. et al, Nature, 1992, 356, 768) were expressed in E. coli; made in house; host or cells: E. coli
T2 sequence (Q14790 217-374 limits assumed, species assumed): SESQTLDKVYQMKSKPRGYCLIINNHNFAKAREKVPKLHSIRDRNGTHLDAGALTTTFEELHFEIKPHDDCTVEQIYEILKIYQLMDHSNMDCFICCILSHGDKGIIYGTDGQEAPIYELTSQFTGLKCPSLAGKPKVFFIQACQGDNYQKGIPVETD
T2 sequence (Q14790 385-479 limits assumed, species assumed): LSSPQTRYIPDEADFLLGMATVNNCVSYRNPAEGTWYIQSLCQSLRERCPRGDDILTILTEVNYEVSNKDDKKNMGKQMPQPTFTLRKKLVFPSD
Nature of the test: Caspase-8 inhibitory effect (fluorescent substrate AcDEVD-AFC). Type of test: biochemical. Summed up: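 E. coli–expressed p10/p20 caspase-8, 2.1 nM, with 50 μM Ac-DEVD-AFC at 25 °C in 50 mM HEPES pH 7.50, sucrose, CHAPS, NaCl, EDTA, 10 mM DTT over various inhibitor concentrations. Initial rates by fluorescence (ex 405 / em 505); Ki from Lineweaver-Burk plot, Kobs from time-course cleavage equation.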

Test [1] has as its system Jurkat cell (ATCC TIB-152). Nature of the test: Jurkat cell apoptosis by Fas antibody, WST-1 method. Type of test: cell-based. The following applies: for IC50: apoptosis using Fas antibody, WST-1. In short, it runs like this:
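Jurkat cells (ATCC TIB-152) induced to apoptosis with Fas antibody in the presence of inhibitor. Viable cells quantified by WST-1 colour change, absorbance at 440 nm.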

The next test concerns hepatic cell apoptosis. Nature of the test: Inhibitory effect against apoptosis during the bile stagnation in SD rats (TUNEL staining). Type of test: in vivo, rat. The following applies: for TUNEL positive cells/field: BDL rats. The method, then:
Male Spargue-Dawley rats (6 weeks, Korea Biolink) were kept under the conditions of 22 °C, 55% of relative humidity, and light-darkness cycle of 12 hours. Food and water were supplied ad libitum. For the ligation of biliary duct, the rats were anesthetized by inhalation of 1% halothane, abdomen of the rats were cut open, the distal and proximal biliary ducts were ligated, the part between the ligation sites were cut, 2 ml of saline was injected, and sutured.
Test compound (Iii) was orally administered in a dosage of 3 mg/kg or 10 mg/kg twice a day. That is, the compound was dissolved in a cosolvent (PEG400:ethanol:Tween80=15:7.5:2.5), diluted with phosphate buffer (pH 7.4) by five times, and administered. To the control group was administered the solution without the test compound. The administration was made for 1 week after 1 week from the ligation of biliary duct.
The test compound (Iii) was administered to the SD rats whose biliary ducts were ligated according to the procedure as Step 1 of Experiment 3. After 2 weeks from the operation, the rats were sacrificed. The livers were fixed by 10% neutral formalin and a paraffin section of 5 μm thickness was prepared. TUNEL staining was carried out using ApopTag Peroxidase In Situ Apoptosis Detection kit (Chemicon) according to the manufacturer's instruction. More than 10 sites of the TUNEL stained liver tissue were photographed in 200 magnifications without any overlap, of which result was shown in FIG. 2. The number of cells suffering apoptosis in each test group was counted and represented in the following Table 2. In the following table, the Sham operation means the case where the biliary duct was exposed but not ligated, and the BDL operation means the case where only the vehicle was administered after the ligation of biliary duct.

A further test concerns rheumatic arthritis. Nature of the test: Therapeutic effect for rheumatic arthritis in rats (type II collagen). Type of test: in vivo, rat. The method, then:
Female Lewis rats (7 weeks, Charles River, Japan) were kept under the conditions of 22 °C, 55% of relative humidity, and light-darkness cycle of 12 hours. Food and water were supplied ad libitum. Type II collagen (bovine) was dissolved in 0.05M acetic acid in a concentration of 2 mg/ml at 4[…], and the same amount of Complete Freund's adjuvant was added to emulsify the solution at 4[…]. 0.1 ml of thus emulsified solution was subcutaneously injected into the rattail of the Lewis rats. After 7 days, the emulsified solution was injected again in the same manner. From the date on which the second emulsified solution was injected, vehicle (a mixture of PEG400:ethanol:Tween80=15:7.5:2.5 was diluted by ten times with phosphate buffer) wherein the test compound is dissolved or the vehicle alone was orally administered into the rats every day. On Day 14 from the first injection of the collagen-containing emulsified solution, the right rear foot volume was measured again by plethysmometer (see Table 4). The edema inhibition (%) was determined by the following Equation 3. […]
Further, p-value was calculated by Student t-test from the increased foot volume on Day 14 to confirm the significance.

Turning to `CC(C)[C@@]1(C(=O)NC(CC(=O)O)C(=O)CF)CC(c2nccc3ccccc23)=NO1` (stereo partly drawn) [Iii, 5-Fluoro-3-({[(5R)-5-isopropyl-3-(1-isoquinolinyl)-4,5-dihydro-5-isoxazolyl]carbonyl}amino)-4-oxopentanoic acid], the kinact/KI at caspase-1 was 18300 M⁻¹ s⁻¹; on caspase-8 (pH 7.5, 25° C., 50 μM AcDEVD-AFC, 2.1 nM caspase-8, read-out: Caspase-8 Kobs/[I] (converted)) it was 217000 M⁻¹ s⁻¹. Besides, at caspase-8, the “increased inhibitory activity against caspase-8 compared with LB84068MP” value is recorded as not below 10 times. Moreover, the “increased inhibitory activity against Jurkat cell compared with LB84068MP” value in test [1] was not below 10 times. In addition, the 50% inhibitory concentration (IC50) (commonly the concentration at which inhibition is half-maximal) in test [1] (Homo sapiens, Jurkat) was 100 nM; in test [1] it was not above 100 nM. Moreover, the figures for the TUNEL positive cells/field in the test with hepatic cell apoptosis (3 mg/kg orally twice a day for 1 week) and with hepatic cell apoptosis (10 mg/kg orally twice a day for 1 week) were 4.12 ± 1.3 TUNEL positive cells/field and 5.66 ± 1.34 TUNEL positive cells/field, respectively. In the test with hepatic cell apoptosis (bile stagnation model, rats), the “inhibition of apoptosis (TUNEL staining)” value stood at 75%. In addition, in the test on rheumatic arthritis (10 mg/kg oral every day, Day 14), the “Foot volume (ml) Day 14 Average” value is 1.394* ml. Besides, the “Foot volume (ml) Day 0 Average” value with rheumatic arthritis (10 mg/kg oral group, Day 0) turned out to be 1.134 mL.
